Measured values: PubChem BioAssay (NCI)
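How tested: cells in 96-well plates exposed to compound for 48 hours at five concentrations. The concentration for 50% growth inhibition is given as GI50. TGI: total growth inhibition.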

What was measured:
Experiment in all cases: DTP human tumour cell line panel, 48 h; in the data active = GI50 below about 0.43 µM; inactive = the rest
[1] = test system: OVCAR-8 ovarian
[2] = test system: SK-MEL-5 melanoma
[3] = test system: SW-620 colon
[4] = test system: MOLT-4 leukemia
[5] = test system: HCT-15 colon
[6] = test system: UO-31 renal
[7] = test system: IGROV1 ovarian
[8] = test system: SNB-75 CNS
[9] = test system: COLO 205 colon
[10] = test system: MALME-3M melanoma
[11] = test system: TK-10 renal
[12] = test system: KM12 colon
[13] = test system: SF-268 CNS
[14] = test system: SF-539 CNS
[15] = test system: SK-MEL-2 melanoma
[16] = test system: SR leukemia
[17] = test system: MCF7 breast
[18] = test system: HCC-2998 colon
[19] = test system: MDA-MB-435
[20] = test system: SN12C renal
[21] = test system: HOP-92 NSCLC
[22] = test system: HCT-116 colon
[23] = test system: HT29 colon
[24] = test system: ACHN renal
[25] = test system: NCI/ADR-RES ovarian
[26] = test system: NCI-H23 lung
[27] = test system: HS 578T breast
[28] = test system: A498 renal
[29] = test system: SK-MEL-28 melanoma

CCN(CC)c1ccc(/C=N/NC(=O)c2ccc(S(C)(=O)=O)cc2)c(O)c1
> 69500 nM: TGI [1]
> 44400 nM: TGI [25]
12000 nM: TGI [14]
active: GI50 [1] 320 nM | GI50 [2] 330 nM | GI50 [4] 253 nM | GI50 [5] 120 nM | GI50 [6] 200 nM | GI50 [7] 292 nM | GI50 [8] 292 nM | GI50 [9] 297 nM | GI50 [11] 356 nM | GI50 [12] 418 nM | GI50 [13] 167 nM | GI50 [14] 287 nM | GI50 [16] 97.2 nM | GI50 [17] 300 nM | GI50 [18] 292 nM | GI50 [20] 415 nM | GI50 [22] 186 nM | GI50 [24] 179 nM | GI50 [29] 362 nM
2490 nM: TGI [2]
inactive: GI50 [3] 438 nM | GI50 [10] 491 nM | GI50 [15] 777 nM | GI50 [19] 605 nM | GI50 [21] 439 nM | GI50 [23] 469 nM | GI50 [25] 467 nM | GI50 [26] 537 nM | GI50 [27] 6440 nM | GI50 [28] 4980 nM
> 82400 nM: TGI [10]
32900 nM: TGI [21]
> 100000 nM: TGI [3] | TGI [4] | TGI [5] | TGI [7] | TGI [9] | TGI [11] | TGI [12] | TGI [13] | TGI [15] | TGI [16] | TGI [17] | TGI [18] | TGI [19] | TGI [20] | TGI [22] | TGI [23] | TGI [24] | TGI [26] | TGI [27] | TGI [28] | TGI [29]
3490 nM: TGI [6]
> 29300 nM: TGI [8]
